Like-named read-outs stand apart in the source and are kept apart here.
Columns and labels:
Assay type in all cases: biochemical
[1] = target: T1, Odc1p (Saccharomyces cerevisiae, UniProt Q03028); assay: Kinetic constants (Km, Vmax, Ki) of recombinant purified Odc1p in proteoliposomes
T1 construct: made in house; host or cells: S. cerevisiae odc1Δodc2Δ (YPH499 background) carrying pYES2-based pODC1; purified from mitochondria on Ni-NTA agarose
T1 sequence (Q03028 1-310): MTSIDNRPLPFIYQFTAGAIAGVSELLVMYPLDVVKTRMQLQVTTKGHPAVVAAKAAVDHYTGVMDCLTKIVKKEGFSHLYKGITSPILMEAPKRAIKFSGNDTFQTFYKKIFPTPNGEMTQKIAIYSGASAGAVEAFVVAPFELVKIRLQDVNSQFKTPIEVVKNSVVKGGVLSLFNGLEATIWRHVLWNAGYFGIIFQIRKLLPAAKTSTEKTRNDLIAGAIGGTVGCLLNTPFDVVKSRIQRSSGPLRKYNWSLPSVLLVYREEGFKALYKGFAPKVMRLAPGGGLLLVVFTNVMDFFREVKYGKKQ
Experimental: (§1) External substrate was removed from proteoliposomes on a Sephadex G-75 column preequilibrated with buffer F (50 mM NaCl and 10 mM PIPES, pH 7.0). Transport at 25° C. was started by adding [^14C]oxoglutarate (unless otherwise indicated) to the proteoliposomes, and terminated by addition of 30 mM pyridoxal 5′-phosphate and 10 mM bathophenanthroline (the “inhibitor-stop” method (13)). In controls, inhibitors were added with the labelled substrate. The external radioactivity was removed on Sephadex G-75 and the internal radioactivity was measured. […] The initial rate of transport was calculated in mmol/min per g protein from the time course of isotope equilibration (13). Various other transport activities were also assayed by the inhibitor-stop method. For efflux measurements, the internal substrate pool of the proteoliposomes was made radioactive by carrier-mediated exchange equilibration (13) with 0.1 mM [^14C]oxoglutarate added at high specific radioactivity. After 60 min, the residual external radioactivity was removed by passing the proteoliposomes again through a column of Sephadex G-75. Efflux was started by adding unlabelled external substrate or buffer F alone and terminated by adding the inhibitors indicated above.
(§2) The kinetic constants of the recombinant purified Odc1p and Odc2p were determined by measuring the initial transport rate at various external [^14C]oxoglutarate concentrations, in the presence of a constant saturating internal concentration of 20 mM oxoglutarate.
(§3) The values were calculated from Lineweaver-Burk plots of the rate of [^14C]oxoglutarate versus substrate concentrations. The competing substrates at appropriate constant concentrations were added together with 0.1-2.0 mM [^14C]oxoglutarate to proteoliposomes containing 20 mM oxoglutarate and reconstituted with recombinant Odc1p or Odc2p. The data represent the means ±S.D. of at least three different experiments. n.d., not determined.

[2] = target: T2, Odc2p (Saccharomyces cerevisiae, UniProt Q99297); assay: Dependence on internal substrate of [14C]oxoglutarate uptake into proteoliposomes reconstituted with recombinant Odc2p; details: Odc2p; for [14C]oxoglutarate transport: proteoliposomes preloaded with 20 mM internal substrate, 0.6 mM [14C]oxoglutarate, 45 seconds; for [14C]oxoglutarate uptake with the internal substrate (in words): proteoliposomes preloaded with various substrates
T2 construct: made in house; host or cells: S. cerevisiae odc1Δodc2Δ (YPH499 background) carrying pYES2-based pODC2; purified from mitochondria on Ni-NTA agarose
T2 sequence (Q99297 1-307): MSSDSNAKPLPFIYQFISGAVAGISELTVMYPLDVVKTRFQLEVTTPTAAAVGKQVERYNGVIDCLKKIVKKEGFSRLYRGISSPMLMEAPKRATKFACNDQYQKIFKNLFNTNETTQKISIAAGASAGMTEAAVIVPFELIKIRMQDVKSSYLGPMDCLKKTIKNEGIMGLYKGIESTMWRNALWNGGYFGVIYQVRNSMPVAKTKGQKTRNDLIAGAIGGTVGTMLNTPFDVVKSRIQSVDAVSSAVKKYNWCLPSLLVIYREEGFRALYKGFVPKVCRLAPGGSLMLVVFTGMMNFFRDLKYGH
Experimental: (§4) Reconstitution of the ODC proteins into liposomes—Purified ODC proteins were reconstituted by cyclic removal of the detergent with a hydrophobic column (13). The composition of the initial mixture used for reconstitution was: 200 μl of purified isoform (0.3-0.4 μg of protein), 70 μl of 10% Triton X-114, 100 μl of 10% phospholipids in the form of sonicated liposomes, 20 mM oxoglutarate (except where otherwise indicated), 10 mM Pipes (pH 7.0), 0.7 mg of cardiolipin (Sigma) and water to a final volume of 700 μl. These components were mixed thoroughly, and the mixture was recycled 13 times through an Amberlite column (Supelco) (3.0 cm×0.5 cm) preequilibrated with a buffer containing 10 mM Pipes (pH 7.0) and with the substrate at the same concentration as in the starting mixture. All operations were performed at 4° C., except the passages through Amberlite, which were carried out at room temperature.
as §1
(§5) The substrate specificity of purified Odc1p and Odc2p was investigated further by measuring the uptake of [^14C]oxoglutarate into proteoliposomes which had been preloaded with various substrates.
(§6) Proteoliposomes were preloaded internally with various substrates (concentration, 20 mM). Transport was started by adding [^14C]oxoglutarate (final concentration, 0.6 mM) and terminated after 45 seconds.

[3] = target: T2, Odc2p; assay: Kinetic constants (Km, Vmax, Ki) of recombinant purified Odc2p in proteoliposomes
Experimental: as §1, §2, §3

[4] = target: T1, Odc1p; assay: Dependence on internal substrate of [14C]oxoglutarate uptake into proteoliposomes reconstituted with recombinant Odc1p; details: Odc1p; for [14C]oxoglutarate transport: proteoliposomes preloaded with 20 mM internal substrate, 0.6 mM [14C]oxoglutarate, 45 seconds; for [14C]oxoglutarate uptake with the internal substrate (in words): proteoliposomes preloaded with various substrates
Experimental: as §4, §1, §5, §6

[5] = target: T1, Odc1p; assay: Efflux of [14C]oxoglutarate from proteoliposomes reconstituted with recombinant Odc1p; details: 10 mM oxoglutarate with 30 mM pyridoxal 5′-phosphate and 10 mM bathophenanthroline added together
Experimental: FIG. 4. Efflux of [^14C]oxoglutarate from proteoliposomes. Proteoliposomes were reconstituted with recombinant Odc1p in the presence of 20 mM oxoglutarate, and then the internal substrate pool was labelled by carrier-mediated exchange equilibration. After removal of external substrate by Sephadex G-75 chromatography, the efflux of [^14C]oxoglutarate was started by adding buffer F alone (●) or 10 mM oxoglutarate (▪), or 10 mM oxoglutarate, 30 mM pyridoxal 5′-phosphate and 10 mM bathophenanthroline (□) in the same buffer.
External substrate was removed from proteoliposomes on a Sephadex G-75 column preequilibrated with buffer F (50 mM NaCl and 10 mM PIPES, pH 7.0). […] The external radioactivity was removed on Sephadex G-75 and the internal radioactivity was measured. […] The initial rate of transport was calculated in mmol/min per g protein from the time course of isotope equilibration (13). […] For efflux measurements, the internal substrate pool of the proteoliposomes was made radioactive by carrier-mediated exchange equilibration (13) with 0.1 mM [^14C]oxoglutarate added at high specific radioactivity. After 60 min, the residual external radioactivity was removed by passing the proteoliposomes again through a column of Sephadex G-75. […]

[6] = target: T2, Odc2p; assay: Effect of inhibitors and external compounds on the [14C]oxoglutarate/oxoglutarate exchange by proteoliposomes reconstituted with Odc2p; details: Odc2p; for inhibition of [14C]oxoglutarate/oxoglutarate exchange (in words): Table III
[7] = target: T1, Odc1p; assay: Effect of inhibitors and external compounds on the [14C]oxoglutarate/oxoglutarate exchange by proteoliposomes reconstituted with Odc1p; details: Odc1p; for Inhibition (%) of [14C]oxoglutarate/oxoglutarate exchange: 20 mM internal oxoglutarate, 0.4 mM [14C]oxoglutarate, 45 seconds, inhibitors 4 mM, except mercurials 10 μM, carboxyatractyloside 0.1 mM, N-ethylmaleimide and α-cyanocinnamate 2 mM; for inhibition of [14C]oxoglutarate/oxoglutarate exchange (in words): Table III
[8] = Odc1p, Lineweaver-Burk plots, 0.1-2.0 mM [14C]oxoglutarate, 20 mM internal oxoglutarate, means ±S.D., read-out: Ki (competition with [14C]oxoglutarate uptake)
[9] = Odc2p, Lineweaver-Burk plots, 0.1-2.0 mM [14C]oxoglutarate, 20 mM internal oxoglutarate, means ±S.D., read-out: Ki (competition with [14C]oxoglutarate uptake)

| SMILES | Ki [1, 8] [mM] | [14C]oxoglutarate transport [2] [mmol/min per g protein] | [14C]oxoglutarate uptake with the internal substrate (in words) [2] | Ki [3, 9] [mM] | [14C]oxoglutarate transport [4] [mmol/min per g protein] | [14C]oxoglutarate uptake with the internal substrate (in words) [4] | effect on efflux of [14C]oxoglutarate induced by external oxoglutarate (in words) [5] | Inhibition (%) of [14C]oxoglutarate/oxoglutarate exchange ([6]; 20 mM internal oxoglutarate, 0.4 mM [14C]oxoglutarate, 45 seconds, inhibitors 4 mM, except mercurials 10 μM, carboxyatractyloside 0.1 mM, N-ethylmaleimide and α-cyanocinnamate 2 mM) [%] | inhibition of [14C]oxoglutarate/oxoglutarate exchange (in words) [6] | Inhibition (%) of [14C]oxoglutarate/oxoglutarate exchange [7] [%] | inhibition of [14C]oxoglutarate/oxoglutarate exchange (in words) [7] | Ki [1] [mM] | Ki [3] [mM] |
| --- | --- | --- | --- | --- | --- | --- | --- | --- | --- | --- | --- | --- | --- |
| O=C(O)CCCC(=O)C(=O)O [2-Oxoadipate] | 0.26 ± 0.03 | 22.1 | taken up efficiently | 0.31 ± 0.04 | 85.0 | taken up efficiently |  |  |  |  |  |  |  |
| O=C(O)CCCCC(=O)C(=O)O [2-Oxopimelate] | 1.83 ± 0.2 | 14.8 | taken up efficiently | 1.64 ± 0.18 | 71.6 | taken up efficiently |  |  |  |  |  |  |  |
| c1ccc(-c2ccnc3c2ccc2c(-c4ccccc4)ccnc23)cc1 [Bathophenanthroline] |  |  |  |  |  |  | prevented completely | 89 | inhibited strongly | 97 | inhibited strongly |  |  |
| O=C(O)CC(O)(CC(=O)O)C(=O)O [Citrate] |  | 8.0 | much lower activity |  | 28.6 | much lower activity |  |  |  |  |  | 6 ± 0.8 | 5.9 ± 0.6 |
| O=C(O)C[C@H](O)C(=O)O [L-malate] | 1.32 ± 0.13 | 11.4 | taken up efficiently | 1.37 ± 0.16 | 56.4 | taken up efficiently |  |  |  |  |  |  |  |
| Cc1ncc(COP(=O)(O)O)c(C=O)c1O [Pyridoxal 5′-phosphate] |  |  |  |  |  |  | prevented completely |  | inhibited strongly | 92 | inhibited strongly |  |  |

From patent publication US20020155192A1, “Yeast transport isoforms” (priority 2000, published 2002)
